In US20240252660A1, “CARGO MOLECULE TRANSDUCTION DOMAIN RMMR1, VARIANT THEREOF, RECOMBINANT CARGO MOLECULE, AND METHOD FOR TRANSDUCING CARGO MOLECULE USING SAME” (REMEDI CO., LTD., priority 2021, published 2024):
Where no end group is shown, it is not given here.

How the values were obtained:
Format in all cases: cell-based
cells = assay: FACS experiment to verify self-penetration efficacy of FITC peptides (summary statement); details: FITC-labelled peptide, cells not specified
Excerpt: The present inventors synthesized FITC and conducted a FACS experiment to verify its self-penetration efficacy using the cell-penetrating peptide RMMR1 derived from the human MRPL15 protein.

B16F10 cells = assay: RMMR1-FITC synthetic peptide cell penetration efficiency (fluorescence value) in B16F10; details: 2.5 uM, 2 hours
Experimental: (§1) HaCaT, 3T3, and B16F10 cells were cultured in cell culture medium supplemented with 10% of fetal bovine serum (FBS) and antibiotic solution (100 units/ml of penicillin, 100 μg/ml of streptomycin) in DMEM medium. Cells were cultured under conditions maintained at 37° C., 95% humidity, and 5% CO2, and when the cells were 70-80% adhered to the culture dish, they were treated with trypsin-EDTA and subcultured. HaCaT cells were distributed and cultured from Professor Kim Tae Yoon of the College of Medicine, The Catholic University of Korea, 3T3 and B16F10 cells were distributed and cultured from the Seoul National University Cell Line Bank. RAW264.7 cells were distributed and cultured from the laboratory of Professor Kim Sang-Beom, College of Pharmacy, Sahmyook University.
(§2) In order to evaluate the cell permeability of RMMR1 in HaCaT, 3T3, B16F10 cells, 1×10^5 of HaCaT cells were attached to a 24-well plate 12 hours in advance. Thereafter, the cells were washed using serum-free DMEM medium and then treated with 2.5 uM of protein in serum-free medium for 2 hours. After 2 hours, the cells were washed a total of 3 times with serum-free medium, and then the cells were detached from the plate by treatment with 150 ul of trypsin, and then neutralized by adding 850 ul of serum-containing medium. […]

3T3 cells = assay: RMMR1-FITC synthetic peptide cell penetration efficiency (fluorescence value) in 3T3; details: 2.5 uM, 2 hours
Experimental: as §1, §2

RAW264.7 cells = assay: Antigen-presenting cell penetration efficiency of FITC-attached peptide; details: 2.5 uM, 2 hours, FITC fluorescence
Experimental: as §1
In order to identify the penetration efficiency of RMMR1 into antigen-presenting cells, the transduction efficiency was confirmed using cell line RAW264.7 using a synthetic peptide attached with fluorescent FITC. In the case of cells without FITC attached, it is difficult to identify the permeability of the peptide, so attaching fluorescent FITC makes it easier to identify cell permeability. Each cell line was treated with FITC-attached peptides RMMR1-FITC (SEQ. NO. 1) and TAT-FITC at the same concentration of 2.5 uM for 2 hours.

Substance	cell penetration compared with HIV-Tat peptide (FITC, FACS) (cells)	cell penetration level compared with control TAT-FITC peptide (B16F10 cells)	cell penetration level compared with control TAT-FITC peptide (3T3 cells)	level of cell penetration compared with control TAT-FITC peptide (RAW264.7 cells)
ERRPRGRRRGRKC (listed as Homo sapiens) [RMMR1, 13 amino acid cargo molecule transduction domain derived from human MRPL15]	penetrated cells much better than the HIV-Tat peptide			
RMMR1-FITC: RMMR1 (SEQ ID NO: 1) synthetic peptide attached with fluorescent FITC (ERRPRGRRRGRKC; also: FITC label, attachment site not given here; listed as Homo sapiens)		significantly higher cell penetration level than the control TAT-FITC peptide	significantly higher cell penetration level than the control TAT-FITC peptide	higher level of cell penetration compared to the control TAT-FITC peptide
